Source: ChEMBL document CHEMBL1124594, “4-(Phosphonoalkyl)- and 4-(phosphonoalkenyl)-2-piperidinecarboxylic acids: synthesis, activity at N-methyl-D-aspartic acid receptors, and anticonvulsant activity” (J Med Chem, 1989)
pIC50: −log10 of the molar value.

Experiments:
[1] = target: Glutamate NMDA receptor; test: Inhibition of [3H]-CGS- 19755 binding to N-methyl-D-aspartate glutamate receptor in rat crude synaptic membranes; type: cell membranes, Membrane
[2] = system: Mus musculus; test: Effective dose of the intraperitoneally administered compound causing loss of traction reflex, was tested in N-methyl-D-aspartic acid convulsions model; type: functional; details: ip
[3] = system: Mus musculus; test: Effective dose of the intraperitoneally administered compound protecting mice against tonic seizures, was tested in N-methyl-D-aspartic acid convulsions model; type: functional; details: ip
[4] = target: Glutamate NMDA receptor; test: Inhibition of [3H]-CGS- 19755 binding to N-methyl-D-aspartic acid receptors in rat crude synaptic membranes; type: cell membranes, Membrane

Row | SMILES | pIC50 [1] | ED50 [2] [mg/kg] | ED50 [3] [mg/kg] | pIC50 [4]
1 | O=C(O)[C@H]1C[C@H](CP(=O)(O)O)CCN1 | 6.34 |  |  | 
2 | C[C@H]1CN[C@@H](C(=O)O)C[C@H]1CP(=O)(O)O | 7.11 | 29 | 7.1 | 
3 | O=C(O)[C@H]1C[C@@H](C/C=C/P(=O)(O)O)CCN1 | 7.14 | 14 | 2.5 | 
4 | O=C(O)[C@H]1C[C@H](C/C=C/P(=O)(O)O)CCN1 | 7.10 | 20 | 10 | 
5 | O=C(O)[C@H]1C[C@@H](/C=C/CP(=O)(O)O)CCN1 | 7.85 | 1.9 | 1.2 | 
6 | N[C@@H](CCCP(=O)(O)O)C(=O)O |  | > 154 | > 154 | 6.46
7 | O=C(O)[C@H]1C[C@@H](CCCP(=O)(O)O)CCN1 |  | 5.4 | 2 | 7.01
8 | O=C(O)C1CN(CCCP(=O)(O)O)CCN1 (stereo not drawn) |  | 6.1 | 1.9 | 6.66
9 | CC(C)([C@H]1CCN[C@@H](C(=O)O)C1)P(=O)(O)O | 5.89 |  |  | 
10 | O=C(O)[C@@H]1C[C@H](CP(=O)(O)O)CCN1 [SELFOTEL] |  | 5.4 | 2.1 | 7.49
11 | C[C@H]1[C@@H](CP(=O)(O)O)CCN[C@H]1C(=O)O | 5.89 | 33 | 26 | 
12 | CC([C@H]1CCN[C@@H](C(=O)O)C1)P(=O)(O)O (stereo partly drawn) | 6.10 | 64 | 21 | 
13 | N[C@H](CCCCCP(=O)(O)O)C(=O)O |  | 188 | 34 | 6.04
14 | C[C@@H]1C[C@H](CP(=O)(O)O)C[C@H](C(=O)O)N1 | 5.80 | 84 | 34 | 
15 | O=C(O)[C@H]1C[C@H](CCCP(=O)(O)O)CCN1 | 6.98 |  |  | 
16 | O=C(O)[C@H]1C[C@H](/C=C/CP(=O)(O)O)CCN1 | 7.41 | 14 | 8.3 | 
17 | CN1CC[C@H](CP(=O)(O)O)C[C@@H]1C(=O)O | 4.55 |  |  | 
